This is an account of results in ChEMBL document CHEMBL1149928, “Stabilization of a prostaglandin tertiary allylic alcohol system by fluorine: synthesis, acid stability studies and pharmacology of a 16-fluoromethyl analog of SC-46275” (1992).

By ED50 is commonly meant the midpoint of the dose-response relation. A lower ED50 goes with greater potency.

For one assay, the system named is Rattus norvegicus. Nature of the assay: Compound was evaluated for the diarrheal effects in adult male rats by intragastric administration. The format is functional. As to conditions: po.
Another assay deals with Canis familiaris. Nature of the assay: Compound was evaluated for the gastric antisecretory activity in food stimulated Pavlov pouch dogs by intrapouch administration. The format is functional. Particulars: Canis lupus familiaris, Stomach.

SMILES strings stand for the structures.

For the compound `COC(=O)CC/C=C\CC[C@H]1C(=O)C[C@@H](O)[C@@H]1/C=C/C[C@@](O)(/C=C/C1=CCCC1)CF`, the 50% effective dose (ED50) in the assay on Rattus norvegicus was above 3160 µg/kg; in the assay with Canis familiaris, 0.05 µg/kg.
As for `COC(=O)CC/C=C\CC[C@H]1C(=O)C[C@@H](O)[C@@H]1/C=C/C[C@@](C)(O)/C=C/C1=CCCC1`, the results for the ED50 with Rattus norvegicus and in the assay with Canis familiaris were above 3160 µg/kg and 0.01 µg/kg, respectively.
